Entries after “also recorded” stand apart in the source; their conditions may differ.

This is an account of results in patent US11845770B2, “Ascaroside derivatives and methods of use” (California Institute of Technology, priority 2019, dated 2023).

A short description of data set [1]: Stability in plasma (rat). In kind it is in vitro ADME. As to conditions: after 120 minutes, 37° C. The procedure: The pH of plasma was adjusted to 7.4±0.1 if required. 1 mM intermediate solution was prepared by diluting 10 μL of the 10 mM stock solution of 1 with 90 μL DMSO; 1 mM intermediate of positive control propantheline bromide was prepared by diluting 10 μL of the stock solution with 90 μL ultra-pure water. 100 μM dosing solution was prepared by diluting 10 μL of the 1 mM intermediate solution with 90 μL of 45% MeOH/H2O. 98 μL of blank plasma was spiked with 2 μL of the 100 μM dosing solution to achieve a final concentration of 2 μM of the compound in duplicate. Samples were incubated at 37° C. in a water bath. At each time point (0, 10, 30, 60 and 120 min), 400 μL of stop solution (200 ng/mL tolbutamide plus 200 ng/mL labetalol in 50% ACN/MeOH) was added and was mixed thoroughly to precipitate protein. Sample plates were centrifuged at 4,000 rpm for 10 min. An aliquot of supernatant (100 μL) was transferred from each well and was mixed with 200 μL ultra-pure water. The samples were shaken at 800 rpm for about 10 min before LC/MS/MS analysis.
The remaining percentage of compound 1 (test article) after incubation was calculated according to the following equation.

Another data set concerns the target T1, CYP2D6 (Homo sapiens, UniProt P10635).
T1 construct: from tissue
The data set is described as follows: 5 in 1 CYP inhibition assay, CYP2D6. In kind it is in vitro ADME. As to conditions: microsomes, probe dextromethorphan (O-demethylation), test compound 10 μM, n=2, read-out: inhibition of cytochrome P450 isoform 2D6. As to the method:
CYP450 dependent activities were determined using a marker substrate cocktail. For each reaction, enzyme activities in the presence and absence of test compound (10 μM) were measured in duplicate. A known inhibitor for each isoform, tested at a single concentration (3 μM, n=2), was included as positive control. Incubation mixtures containing microsomes, substrate, and standard inhibitor or test compound were warmed at 37° C. for 10 minutes. Reactions were initiated by addition of the NADPH and incubated for 10 min. [table] After incubation, ice cold acetonitrile was added to terminate the reaction. Generation of metabolites from the substrate reactions was determined by LC-MS/MS.

For data set [2], the system named is esophageal eosinophil infiltrate. The data set is described as follows: Eosinophilic esophagitis model, L2-IL5 transgenic mouse sensitized/locally challenged with oxazolone. The note with it: L2-IL5 mice, OXA, Day 13; for eosinophilia of the esophagus (MBP staining, eosinophils/400× hpf): FIG. 24. The data set is classed as in vivo. The text has this: From the observation of increased local expression of Interleukin-5 (IL-5) in EoE, transgenic mouse with targeted IL-5 expression to the esophageal squamous epithelia using the Epstein-Barr virus ED-L2 (EBV-ED-L2) gene promoter was generated. […] Even though squamous epithelial-specific IL-5 expression alone induced a significant esophageal eosinophilia encompassing the length of the esophagus, this eosinophilia was not accompanied by the density of histopathological changes such as eosinophilic micro abscesses characteristic of EoE. However, L2-IL5 transgenic mice upon sensitization and subsequent localized topical esophageal challenge with 4-ethoxymethylene-2-phenyl-2-oxazolin-5-one (OXA), a molecule known to induce T-helper cell (Th) type 2 responses, developed key histopathological features, including epithelial hyperplasia and eosinophilic micro abscesses that erupt through the epithelium into the esophageal lumen. Immunohistochemical staining of the eosinophil secondary granule major basic protein (MBP-1) was used to assess the induced esophageal eosinophilia and eosinophil degranulation. […] However, this response was small compared to the induced eosinophilia and associated degranulation that occurred in OXA-treated L2-IL5 transgenic mice (Masterson et al. Gut. 2014, 63, 1-25, which is hereby incorporated by reference in its entirety).
Prior to the OXA sensitization and topical local challenge model of delayed contact hypersensitivity, L2-IL5 transgenic mice were intraperitoneally (IP) injected with compounds or vehicle at 8, 4, and 2 days before sensitization at Day zero (schematic timeline in FIG. 20A). Compounds are prepared by dissolving in dimethyl sulfoxide (DMSO) as master stocks. Fresh working stock compounds in water are prepared for each day of injection and 100 μL of working stock or vehicle is IP injected per mouse. On day zero of the OXA sensitization/local challenge, a 2 cm×2 cm area of abdominal skin of anaesthetized experimental animals was shaved and OXA was applied to the skin surface (150 μl of a 3% (w/v) solution of OXA in 4:1 acetone-olive oil vehicle) to initiate the sensitization phase of the protocol. Sensitized mice then received topical OXA challenges of the esophagus by gavage on protocol Day 5, 8 and 12 after OXA sensitization with 100 μL of a 1% (w/v) solution of OXA in 30% ethanol/olive oil vehicle into the proximal esophagus. In addition, compounds or vehicle were IP injected on Day 5, 8, and 12 after OXA sensitization. All mice were sacrificed, and esophagus collected for histology 24 hours following the last OXA challenge on Day 12 (FIG. 20A). Immunohistochemical staining using a rat monoclonal anti-mouse MBP-1 antibody was conducted to highlight esophageal eosinophil infiltration and localized degranulation. A quantitative assessment of the esophageal eosinophil infiltrate in each group of mice was determined across nine high powered field (hpf) of view, three distal ([…] (Prox)) regions and expressed as group mean data of the eosinophil density (ie, eosinophils/400× hpf) (FIG. 20B). In addition, the eosinophilia is recorded according to the different (epithelial, lamina propia, and muscle) cell layers of the esophagus (FIG. 20C).
of NDM-X in water (20 μL of master stock in […] of water) and 0.231 μg/L of 1 in water (22 μL of master stock in 1078 μL of water) for each injection cohort that are […], respectively. On Day zero of the OXA sensitization/local challenge, a 2 cm×2 cm area of abdominal skin of anaesthetized experimental animals was shaved and OXA was applied to the skin surface to initiate the sensitization phase of the protocol. Sensitized mice then received topical OXA challenges of the esophagus by gavage on protocol Day 5, 8 and 12 after OXA sensitization in the proximal esophagus. […]

Setting [3] is: High Dose IP (0.92 mg/kg 1; 0.77 mg/kg NDM-X), FIG. 21.
Setting [4] is: Low Dose IP (0.014 mg/kg 1; 0.012 mg/kg NDM-X), FIG. 22.

T1 sequence (P10635 whole entry): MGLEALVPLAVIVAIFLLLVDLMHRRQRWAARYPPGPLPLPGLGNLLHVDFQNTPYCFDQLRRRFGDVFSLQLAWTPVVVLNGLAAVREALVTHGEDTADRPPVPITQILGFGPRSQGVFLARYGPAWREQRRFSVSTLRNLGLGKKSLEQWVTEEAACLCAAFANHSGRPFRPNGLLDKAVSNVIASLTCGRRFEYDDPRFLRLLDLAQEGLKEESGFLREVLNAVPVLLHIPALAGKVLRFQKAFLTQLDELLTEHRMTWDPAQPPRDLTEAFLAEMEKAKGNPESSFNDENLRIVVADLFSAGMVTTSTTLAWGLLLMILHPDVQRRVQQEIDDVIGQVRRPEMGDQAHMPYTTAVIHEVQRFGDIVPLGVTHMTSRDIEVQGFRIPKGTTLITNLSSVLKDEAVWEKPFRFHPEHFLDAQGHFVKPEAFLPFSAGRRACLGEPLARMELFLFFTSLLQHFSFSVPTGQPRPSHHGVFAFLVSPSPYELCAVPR

On to `C[C@H](CC/C=C/C(=O)O)O[C@@H]1O[C@@H](C)[C@H](O)C[C@H]1O` [ascr #7, reference compound], for which the “remaining percentage after incubation” value in data set [1] is recorded as 99.8%. Besides, the inhibition (as a rule, the percentage by which the read-out fell short of the control) at 10 min, 10 µM on CYP2D6 amounted to 4.6%. The “eosinophilia of the esophagus (MBP staining, eosinophils/400× hpf)” value in data set [2] (0.012 mg/kg Low Dose IP, listed as NDM-X) is “slightly better than 0.77 mg/kg High Dose of NDM-X in inhibiting the eosinophilia; also recorded: statistically significant inhibition of the eosinophilia observed in the epithelial, lamina propria, and muscle cell layers of the distal, middle, and proximal regions of the esophagus”; in data set [2] (0.77 mg/kg High Dose IP), “statistically significant reduction of the eosinophilia in the epithelial and lamina propria cell layers of distal, middle, and proximal regions of the esophagus”. The “eosinophilia of the esophagus (MBP-1 staining, eosinophils/400× hpf)” value was “statistically significant reduction in the eosinophilia in the lamina propria and muscle cell layers of the distal, middle, and proximal regions of the esophagus” in data set [2] (setting [3]); “statistically significant inhibition of the eosinophilia in all cell layers of the proximal region, the muscle cell layers in all regions, and the epithelial cell layer of the distal and proximal regions” in data set [2] (setting [4]).

For `C[C@H](CC/C=C/C(=O)OC(C)(C)C)O[C@@H]1O[C@@H](C)[C@H](O)C[C@H]1O` [Compound 1, tert-butyl (2E,6R)-6-{[(2R,3R,5R,6S)-3,5-dihydroxy-6-methyloxan-2-yl]oxy}hept-2-enoate], the “remaining percentage after incubation” value in data set [1] came out at 19.2%. For the same compound, at CYP2D6, the inhibition at 10 min, 10 µM came to 10.1%. Also, in data set [2] (0.092 mg/kg Mid Dose and 0.92 mg/kg High Dose IP, FIG. 23), the “eosinophilia of the esophagus, dose dependence” value was “dose-dependently inhibited eosinophilia in the epithelial, lamina propria, and muscle cell layers of the distal, middle, and proximal regions of the esophagus”. For the same compound, the “eosinophilia of the esophagus (MBP-1 staining, eosinophils/400× hpf)” value in data set [2] (0.92 mg/kg High Dose IP, FIG. 23) is “statistically significant inhibition of the eosinophilic esophagitis observed in epithelial cell layer of distal, middle, and proximal regions of the esophagus; also recorded: statistically significant inhibition of the eosinophilia observed in the lamina propria and muscle cell layers of the middle section of the esophagus; also recorded: statistically significant reduction in eosinophilia observed in all cell layers of the middle and proximal sections as well as the whole esophagus”; in data set [2] (setting [3]) it was “statistically significant inhibition of eosinophilic esophagitis in the epithelial, lamina propria, and muscle layers of the distal, middle, and proximal cell layers of the esophagus; also recorded: more robust blocking of eosinophil esophagitis in the mouse model than compared to 0.77 mg/kg NDM-X High Dose”; in data set [2] (setting [4]) it was “statistically significant inhibition of the eosinophilia in all cell layers of the proximal region, epithelial cell layer of the distal region, and lamina propria cell layer of the middle section of the esophagus”.
